Data set [1] deals with MSTO-211H (biphasic mesothelioma). The data set is described as follows: Cell growth assay (Trypan blue), MSTO-211H cells. The format is cell-based, human. Particulars: for IC50: 72 h, Trypan blue. How it is done:
(§1) A2780 (human ovarian carcinoma) and HT-29 (human colorectal adenocarcinoma) were grown in RPMI 1640 (Sigma Chemical Co., St. Louis, MO, USA), and MSTO-211H (human biphasic mesothelioma) were grown in RPMI 1640 (Sigma Chemical Co.) supplemented with 2.38 g/L Hepes, 0.11 g/L pyruvate sodium, and 2.5 g/L glucose. Then, 1.5 g/L NaHCO3, 10% heat-inactivated fetal calf serum (Biowest), 100 U/mL penicillin, 100 μg/mL streptomycin, and 0.25 μg/mL amphotericin B (Sigma Chemical Co.) were added to the media. The cells were cultured at 37 °C in a moist atmosphere of 5% carbon dioxide in air. Cells (2.5–3 × 10^4) were seeded into each well of a 24-well cell culture plate. After incubation for 24 h, various concentrations of the test agents were added to the complete medium and incubated for a further 72 h. A Trypan blue assay was performed to determine cell viability. Cytotoxicity data were expressed as IC50 values, i.e., the concentration of the test compound able to induce a 50% reduction in cell number compared with control cultures.

Data set [2] relates to A2780 (ovarian carcinoma). The data set is described as follows: Cell growth assay (Trypan blue), A2780 cells. The format is cell-based, human. Particulars: 72 h, Trypan blue. The method, then:
as §1

Data set [3] concerns CEM (human T-lymphocyte cells). The data set is described as follows: Cell growth assay, CEM cells. Particulars: racemic compounds, 72 h, Coulter counter. The format is cell-based. How it is done:
(§2) HeLa (human cervix carcinoma) and CEM (human T-lymphoblast) were grown in Dulbecco’s modified Eagle’s medium (DMEM; Gibco, Carlsbad, CA, USA), supplemented with 0.01 M Hepes (Gibco) and 1 mM sodium pyruvate (Gibco) in a humidified 5% CO2 incubator at 37 °C. HMEC-1 (human microvascular endothelial cells) was maintained in Dulbecco’s modified Eagle’s medium (DMEM)/low glucose containing glutamine (2 mM). The media were supplemented with 10% fetal bovine serum (FBS, Gibco), penicillin ([…]), streptomycin ([…]), and amphotericin B ([…]). CEM cells were seeded in 96-well plates at 60,000 cells/well in the presence of different concentrations of the compounds, and allowed to proliferate for 72 h. HeLa cells were seeded in 96-well plates at 15,000 cells/well in the presence of different concentrations of the compounds. After 4 days of incubation, the cells were trypsinized and counted. HMEC-1 cells were seeded in 48-well plates at 20,000 cells/well. After 24 h, the compounds were added at different concentrations. The cells were allowed to proliferate for 4 days in the presence of the compounds, trypsinized, and counted. All cells were counted by means of a Coulter counter (Analis, Belgium).

The subject of data set [4] is HMEC-1 (human dermal microvascular endothelial cells). The data set is described as follows: Cell growth assay, HMEC-1 cells. The following applies: HMEC-1, 96 h, racemic compounds, 4 days, Coulter counter. The format is cell-based. The method, then:
as §2

In data set [5] the test system is HeLa (human cervix carcinoma cells). Description: Cell growth assay, HeLa cells. Particulars: 96 h, racemic compounds, 4 days, Coulter counter. The data set is classed as cell-based. The method, then: as §2
Data set [6] relates to HT-29 (colorectal adenocarcinoma). The data set is described as follows: Cell growth assay (Trypan blue), HT-29 cells. Particulars: 72 h. The format is cell-based, human. The method, then: as §1
Setting [7] is: Homo sapiens, MSTO-211H, racemic compounds.
Where [8] appears, read: Homo sapiens, A2780, 72 h, racemic compounds.
Where [9] appears, read: Homo sapiens, HT-29, racemic compounds.
Setting [10] is: Homo sapiens, MSTO-211H, pure enantiomers.
Setting [11] is: Homo sapiens, A2780, 72 h, pure enantiomers.
The mark [12] stands for this setting: Homo sapiens, HT-29, pure enantiomers.

Molecules are shown by their SMILES. Some results are limits rather than exact numbers.

For the molecule `Cc1ccc(O)c(CNC2CCCc3ccc(C)nc32)c1` (racemic) [Compound 2b, 4-methyl-2-(((2-methyl-5,6,7,8-tetrahydroquinolin-8-yl)amino)methyl)phenol], the melting point (as a rule, the temperature, or range, at which the solid turns liquid) was 89.5 to 90.8 °C. Besides, the IC50 (in general, the concentration that inhibits the measured activity by half) in data set [1] (setting [7]) came out at 35 ± 10 µM. In data set [2] (setting [8]), this molecule registered a concentration for half-maximal inhibition (IC50) of 25 ± 5 µM. In addition, 23 ± 4 µM corresponded to half-maximal inhibition in data set [3] (IC50). The molecule further showed an IC50 in data set [4] of 60 ± 2 µM. The IC50 in data set [5] stood at 75 ± 11 µM. The molecule further returned an IC50 in data set [6] (setting [9]) of 62 ± 8 µM.
In turn, `Cc1ccc2c(n1)C(/N=C/c1ccccn1)CCC2` (racemic) [Compound 3a, (E)-N-(2-methyl-5,6,7,8-tetrahydroquinolin-8-yl)-1-(pyridin-2-yl)methanimine] showed a melting point of 102.8 to 104.3 °C. The molecule also displayed an IC50 in data set [1] (setting [7]) of 30 ± 8 µM. The molecule also registered an IC50 in data set [2] (setting [8]) of 16 ± 2 µM. The same molecule gave an IC50 in data set [3] of 33 ± 7 µM. In data set [4], this molecule had an IC50 of 77 ± 32 µM. This molecule showed an IC50 in data set [5] of 34 ± 6 µM. The molecule further had an IC50 in data set [6] (setting [9]) of 42 ± 6 µM.
As for `Cc1ccc2c(n1)C(/N=C/c1ncc[nH]1)CCC2` (racemic) [Compound 5a, (E)-1-(1H-imidazol-2-yl)-N-(2-methyl-5,6,7,8-tetrahydroquinolin-8-yl)methanimine], the melting point lay within 101.2 to 102.6 °C. Also, the half-maximal inhibitory concentration (IC50) in data set [1] (setting [7]) is 31 ± 7 µM. The molecule also had a 50% inhibitory concentration (IC50) in data set [2] (setting [8]) of 13 ± 3 µM. The molecule further had an IC50 in data set [3] of 43 ± 7 µM. The same molecule registered an IC50 in data set [4] of 57 ± 4 µM. The molecule also had a concentration for half-maximal inhibition (IC50) in data set [5] of 37 ± 9 µM. For the same molecule, in data set [6] (setting [9]), the half-inhibitory concentration (IC50) came out at 70 ± 2 µM.
For `Cc1ccc(O)c(CN[C@@H]2CCCc3ccc(C)nc32)c1` [(R)-2b, 4-methyl-2-(((2-methyl-5,6,7,8-tetrahydroquinolin-8-yl)amino)methyl)phenol], the half-maximal inhibitory concentration (IC50) is more than 20 µM in data set [1] (setting [10]), 15.2 ± 2.3 µM in data set [2] (setting [11]) and more than 20 µM in data set [6] (setting [12]). The “cytotoxic effect on MSTO-211H (in words)” value in data set [1] (pure enantiomers) is “inactive”.
As for `Cc1ccc2c(n1)[C@H](/N=C/c1ccccn1)CCC2` [(R)-3a, (E)-N-(2-methyl-5,6,7,8-tetrahydroquinolin-8-yl)-1-(pyridin-2-yl)methanimine], the values for the IC50 in data set [1] (setting [10]), in data set [2] (setting [11]) and in data set [6] (setting [12]) were 14.9 ± 1.4 µM, 11.7 ± 2 µM and more than 20 µM, respectively.
Consider `Cc1ccc(O)c(CN[C@H]2CCCc3ccc(C)nc32)c1` [(S)-2b, 4-methyl-2-(((2-methyl-5,6,7,8-tetrahydroquinolin-8-yl)amino)methyl)phenol], for which, in data set [1] (pure enantiomers), the “cytotoxic effect on MSTO-211H (in words)” value was “inactive”. For the same molecule, the 50% inhibitory concentration (IC50) is more than 20 µM in data set [1] (pure enantiomers), 11.5 ± 2.6 µM in data set [2] (pure enantiomers) and more than 20 µM in data set [6] (pure enantiomers).
Take `Cc1ccc2c(n1)[C@@H](/N=C/c1ccccn1)CCC2` [(S)-3a, (E)-N-(2-methyl-5,6,7,8-tetrahydroquinolin-8-yl)-1-(pyridin-2-yl)methanimine]: the figures for the IC50 in data set [1] (pure enantiomers), in data set [2] (pure enantiomers) and in data set [6] (pure enantiomers) were 11.8 ± 2.3 µM, 11.4 ± 0.4 µM and more than 20 µM, respectively.
For `Cc1ccc2c(n1)[C@@H](/N=C/c1ncc[nH]1)CCC2` [(S)-5a, (E)-1-(1H-imidazol-2-yl)-N-(2-methyl-5,6,7,8-tetrahydroquinolin-8-yl)methanimine], the “cytotoxic effect on MSTO-211H (in words)” value in data set [1] (pure enantiomers) is “ineffective”. The IC50 in data set [1] (pure enantiomers) is more than 20 µM; in data set [2] (pure enantiomers), 17.2 ± 3 µM; in data set [6] (pure enantiomers), more than 20 µM.
`Cc1ccc2c(n1)C(/N=C/c1cccc(C)c1O)CCC2` (centres unmarked) [Compound 1a, (E)-2-methyl-6-(((2-methyl-5,6,7,8-tetrahydroquinolin-8-yl)imino)methyl)phenol]: the melting point fell in the range of 102.2 to 103.8 °C. In data set [1] (setting [7]), this molecule returned an IC50 of 69 ± 3 µM. Moreover, the half-inhibitory concentration (IC50) in data set [2] (setting [8]) is 65 ± 9 µM. In addition, the concentration for half-maximal inhibition (IC50) in data set [3] is more than 100 µM. Moreover, the IC50 in data set [4] was more than 100 µM. In data set [5], the IC50 was more than 100 µM. Moreover, the IC50 in data set [6] (setting [9]) was determined as 83 ± 5 µM.
`Cc1ccc2c(n1)C(NCc1cccc(C)c1O)CCC2` (centres unmarked) [Compound 1b, 2-methyl-6-(((2-methyl-5,6,7,8-tetrahydroquinolin-8-yl)amino)methyl)phenol]: the melting point lay within 89.2 to 91.1 °C. Besides, the half-maximal inhibitory concentration (IC50) in data set [1] (setting [7]) came out at 28 ± 4 µM. The IC50 in data set [2] (setting [8]) stood at 42 ± 5 µM. Besides, the IC50 in data set [3] turned out to be 66 ± 47 µM. For the same molecule, the IC50 in data set [4] was 63 ± 2 µM. This molecule had an IC50 in data set [5] of 93 ± 10 µM. In data set [6] (setting [9]), this molecule gave an IC50 of 57 ± 6 µM.

These data come from PMC7729733, “Biological Properties of New Chiral 2-Methyl-5,6,7,8-tetrahydroquinolin-8-amine-based Compounds” (Molecules, 2020).
